Measured values from US10927139B2, “Chemically cleavable group” (Tagworks Pharmaceuticals B.V., priority 2012, dated 2021).
Where two headings read alike, the source gives them in different places.

Assays:
[1] = Deprotection of N-TCO protective group (Example 6, 1H-NMR); conditions: chloroform with trifluoroacetic acid; 3,6-dimethyl-1,2,4,5-tetrazine (8); 20° C. for 40 min
Experimental: (N-TCO-6-aminohexyl) phenylcarbamate (5.61 mg; 1.44*10^−5 mol) was dissolved in chloroform (0.6 mL) and trifluoroacetic acid (20 mg; 1.75*10^−4 mol) was added. Subsequently, a solution of 3,6-dimethyl-1,2,4,5-tetrazine (8, 1.90 mg; 1.73*10^−5 mol) in chloroform (0.1 mL) was added. The pink, homogeneous mixture was stirred at 20° C. for 40 min. According to ^1H-NMR, more than 95% was deprotected. The reaction mixture was washed with aqueous potassium carbonate (0.5 mL 0.4 M), dried over sodium sulfate, filtered, and evaporated to dryness. The crude product was purified by preparative RP-HPLC and isolated by lyophilization to yield a white powder (2.31 mg; 68%). ^1H-NMR (DMSO-d6): δ=9.60 (s, 1H), 7.46 (d, 2H), 7.26 (t, 2H), 6.97 (t, 1H), 4.06 (t, 2H), 2.60 (t, 2H), 1.62 (m, 2H), 1.33 (m, 6H) ppm. ^13C-NMR (CDCl3): δ=153.6, 139.2, 128.7, 122.2, 118.1, 73.8, 64.1, 41.5, 33.3, 28.6, 26.1, 25.4 ppm. FT-IR (ATR): v=3343, 2939, 1707, 1542, 1448, 693 cm^−1. LC-MS: m/z=+237.17 [M+H]+(calcd 236.15 for C13H20N2O2).

[2] = Testing the feasibility of the deprotection of TCO compounds upon reaction with tetrazine; conditions: 20° C.
[3] = Testing the stability of a TCO compound under chemical conditions (HPLC-MS/PDA, GC-MS); assay type: physicochemical
Experimental: (§1) The feasibility to use the TCO group as a protective group in chemistry was studied by testing the stability of a range of TCO derivatives as model compounds under various conditions, and following the deprotection upon reaction with a tetrazine derivative under these conditions.
Typical Example for Testing the Stability of a TCO Compound
The TCO stock solution (10 μL 25 mM; 2.5*10^−7 mol) was added to a solution of the specific condition (100 μL). The mixture was stirred at the specific condition for a certain amount of time, and then the fate of the TCO compound was monitored by HPLC-MS/PDA analysis and/or GC-MS analysis, and an estimation of its stability was made.
(§2) A) in acetonitrile with 5 equivalents of pyridine per TCO at 20° C.
(§3) B) in acetonitrile with 5 equivalents of DIPEA per TCO at 20° C.
(§4) C) in acetonitrile with 5 equivalents of piperidine per TCO at 20° C.
(§5) D) in acetonitrile with 5 equivalents of n-butylamine per TCO at 20° C.
(§6) E) in acetonitrile with 5 equivalents of 2-mercaptoethanol per TCO at 20° C.
(§7) F) in tetrahydrofuran with 5 equivalents of triphenylphosphine per TCO at 20° C.
(§8) G) in acetonitrile with 5 equivalents of DCC per TCO at 20° C.
(§9) H) in acetonitrile with 5 equivalents of PyBOP per TCO at 20° C.
(§10) I) in acetonitrile with 1 v % of formic acid at 20° C.
(§11) J) in chloroform at 20° C.
(§12) K) in chloroform with 1 v % of formic acid at 20° C.
(§13) L) in chloroform with 1 v % of trifluoroacetic acid at 20° C.
(§14) M) in chloroform with 10 v % of trifluoroacetic acid at 20° C.
(§15) N) in chloroform with 33 v % of trifluoroacetic acid at 20° C.
(§16) Z) in 25% acetonitrile in water at 20° C.

[4] = Testing the feasibility of the deprotection of TCO compounds upon reaction with tetrazine
Experimental: as §1
Typical Example for Testing the Feasibility of the Deprotection
The TCO stock solution (10 μL 25 mM in acetonitrile; 2.5*10^−7 mol) was added to a solution of the specific condition (100 μL). A solution of 3,6-dimethyl-1,2,4,5-tetrazine (8, 20 μL 25 mM in acetonitrile; 5.0*10^−7 mol) was added, and the mixture was stirred at the specific condition for a certain amount of time. The reaction was monitored by HPLC-MS/PDA analysis and/or GC-MS analysis, and the percentage of deprotection was estimated.
as §2, §3, §4, §5, §6, §7, §8, §9, §10, §11, §12, §13, §14, §15, §16

streptavidin beads = target: T1, streptavidin beads (Streptomyces avidinii, UniProt P22629); experiment: Capture of 125I-Rtx-TCO-biotin with streptavidin beads (gamma counting); assay type: binding; conditions: 1 hour incubation
T1 construct: purchased Invitrogen
T1 sequence (P22629 25-183): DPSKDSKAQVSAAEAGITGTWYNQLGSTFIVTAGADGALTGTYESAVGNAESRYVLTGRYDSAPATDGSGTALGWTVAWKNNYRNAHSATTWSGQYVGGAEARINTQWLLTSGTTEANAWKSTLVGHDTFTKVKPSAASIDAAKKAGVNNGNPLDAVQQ
Experimental: Rituximab (Rtx, 100 μg in 200 μL PBS, Roche) was radiolabeled with ^125I (Perkin Elmer) in a Pierce iodination tube (5 min incubation at room temperature) followed by size exclusion (SEC) purification (2 times, 0.5 mL Zeba desalting spin cartridge, 40 kDa MWCO, Pierce). Subsequently, non-radioactive Rtx was added to the solution (making 1 mg total Rtx), the pH was adjusted to 9 with 1 M sodium carbonate buffer and TCO-2-Biotin (3 eq., 5 mg/mL in DMSO) was added. The reaction mixture (200 μL) was incubated for 2 hours at 37° C. (350 rpm), purified once by SEC cartridge and then analyzed by SEC HPLC on an Agilent 1200 system equipped with a Gaby radioactive detector and UV detector and connected to a BioSep-SEC-S-3000 column (300×7.8 mm, 5 μm particles, Phenomenex) which was eluted at 1 mL/min with 0.1 M phosphate 0.15 M NaCl pH 6.8.
Subsequently, various amounts of ^125I-Rtx-TCO-biotin were combined with 1 mg streptavidin beads (Dynabeads MyOne Streptavidin Cl, Invitrogen) in 200 μL PBS and incubated for 1 hour at room temperature on a roller bench, to avoid bead settling. After incubation, the supernatants were removed and the beads were washed extensively with PBS.

[5] = TCO-doxorubicin with uncoated and unmodified beads (comparison); conditions: same conditions
[6] = Binding of TCO-protected doxorubicin to beads coated with BSA-tetrazine and doxorubicin release (HPLC)
Experimental: Tetrazine functionalization of a BSA-coated particle has been described in J. Nucl. Med. 2013, 54, 1989-1995. Briefly, a solution of BSA (bovine serum albumin; 0.7 mg) in PBS was mixed with a 10 mg/mL solution of a bis-pyridyl-tetrazine-NHS derivative in DMF (35 μL, 30 eq. with respect to BSA) and the pH was adjusted to 9.0 with 1 M sodium carbonate buffer. The solution (125 μL total) was incubated at room temperature for 30 min then the unreacted tetrazine was removed from the solution by using a Zeba desalting spin column (7 kDa MW cut-off) pre-washed with PBS. UV measurements confirmed the presence of 12 tetrazine moieties per BSA molecule.
The eluate containing BSA-tetrazine in PBS was added to a 350 μL suspension of polystyrene beads (Polybeads, 0.5 μm, Polysciences) in H2O and the resulting suspension was incubated at +4° C. for 1 h on an end-over-end rotating mixer (10 rpm). After incubation, the suspension of beads coated with BSA-tetrazine was centrifuged at 12,000 rpm for 4 min. The supernatant was carefully removed and the pellet was resuspended in 1.5 mL PBS by using a tip sonicator at low power (Sonics VibraCell, 4×5 sec pulses, 40% of power). The centrifuging-resuspension cycle was repeated 2 times, after which the bead pellet was resuspended in 200 μL PBS and reacted with 7 nmol of TCO-protected doxorubicin (TCO-3-Doxorubin, 1 mM in DMSO).
After 5 min incubation at 37° C. in a thermomixer (350 rpm), the beads were removed by centrifugation and the supernatant was analyzed by HPLC on an Agilent Techologies system (1100 series) equipped with a fluorescence detector with λhex=485 nm and λem=590 nm. The sample was loaded on an Eclipse XDB-C18 column (5 μm, 4.6×150 mm^2, Agilent) which was eluted isocratically with 30% (v/v) acetonitrile in H2O containing 0.1% TFA (v/v) at 1 mL/min. HPLC analysis of the supernatant confirmed that ca. 75% of TCO-doxorubicin was bound to the beads.
The bead pellet was resuspended in 1.5 mL PBS and centrifuged twice to eliminate unbound TCO-doxorubicin. Subsequently, the beads were resuspended in 400 μL PBS and incubated at 37° C. At various times, aliquots of the supernatant were analyzed by HPLC. The chromatographic profiles (FIG. 2) show release of free doxorubicin (Rt=6.2 min) from the beads with time (>45% after 3 h; complete within 24 h).

[7] = with 5 eq. of DIPEA in MeCN for 16 h, 20° C.
[8] = with 5 eq. of PyBOP in MeCN for 16 h, 20° C.
[9] = 0.1 M HCOOH buffer, pH = 2.0 for 2 day, 20° C.
[10] = 0.1 M NH3 buffer, pH = 11 for 5 day, 20° C.
[11] = 0.1 M NH4OAc buffer, pH = 7.0 for 5 day, 20° C.
[12] = 0.1 M NH4OAc buffer, pH = 8.0 for 8 day, 20° C.
[13] = 0.1 M NH4OAc buffer, pH = 10.0 for 8 day, 20° C.
[14] = 10% MeCN in H2O at 70° C. for 5 day

O=C(Nc1ccccc1)OCCCCCCNC(=O)OC1/C=C/CCCCC1 (stereo not drawn) [(N-TCO-6-aminohexyl) phenylcarbamate]
deprotected according to 1H-NMR [1]: more than 95%

NC1CC/C=C/CCC1NC(=O)Oc1ccccc1 (stereo not drawn)
Deprotection (%) ([2]; with 5 eq. of HCOOH in MeCN for 16 h): 33.9%
Deprotection (%) ([2]; with 5 eq. of pyridine in MeCN for 16 h): 71.7%
half-life ([3]; 0.1 M NH4OAc buffer, pH = 7.0, 20° C., read-out: Stability of TCO, t1/2): 80 h
half-life ([3]; 0.1 M NH4OAc buffer, pH = 8.0, 20° C., read-out: Stability of TCO, t1/2): 17 h
half-life at 2.3 mM ([3]; 0.1 M NH4OAc buffer, pH = 9.0, 20° C., read-out: Stability of TCO, t1/2): 5.3 h
Stability of TCO: cyclization [3, 7]: 6.7%
Stability of TCO: cyclization ([3]; with 5 eq. of HCOOH in MeCN for 16 h, 20° C.): 1.9%
Stability of TCO: cyclization [3, 8]: 5.9%
Stability of TCO: cyclization ([3]; with 5 eq. of pyridine in MeCN for 16 h, 20° C.): 2.6%
Deprotection (%) [4, 7]: 98.8%
Deprotection (%) [4, 8]: 24.4%

^125I-Rtx: Rituximab (Rtx, Roche) radiolabeled with 125I
radioactivity bound to streptavidin beads (streptavidin beads): almost no radioactivity was bound

COc1cc(COC(=O)NC2CC/C=C/CCC2N)cc(OC)c1OC (stereo not drawn)
Deprotection (%) ([2]; 0.1 M NH4OAc buffer, pH = 9.0 for 8 day): 25%
Deprotection (%) ([2]; 10% MeCN in H2O for 5 day): 0%
Stability of TCO [3, 9]: stable
Stability of TCO: cyclization [3, 10]: < 5%
Stability of TCO [3, 11]: stable
Stability of TCO [3, 12]: stable
Stability of TCO ([3]; 0.1 M NH4OAc buffer, pH = 9.0 for 8 day, 20° C.): stable
Stability of TCO [3, 13]: stable
Stability of TCO: cyclization [3, 14]: <5%
Stability of TCO ([3]; 10% MeCN in H2O for 5 day, 20° C.): stable
Deprotection (%) [4, 9]: 0%
Deprotection (%) [4, 10]: 87%
Deprotection (%) [4, 11]: 0%
Deprotection (%) [4, 12]: 0%
Deprotection (%) [4, 13]: 81%
Deprotection (%) [4, 14]: 50%

COc1cccc2c1C(=O)c1c(O)c3c(c(O)c1C2=O)C[C@@](O)(C(=O)CO)C[C@@H]3O[C@H]1CC(NC(=O)OCc2ccc(OC(=O)N[C@@H]3CC/C=C/CC[C@@H]3N)cc2)[C@H](O)C(C)O1 (stereo partly drawn) [TCO-3-Doxorubicin]
non-specific proDox adsorption on the bead surface [5]: > 95%
TCO-doxorubicin bound to the beads ([6]; BSA-tetrazine coated beads, 5 min incubation at 37° C., HPLC of supernatant): ca. 75%
time to complete release of free doxorubicin from the beads ([6]; PBS, 37° C.): ≤ 24 h
release of free doxorubicin from the beads ([6]; PBS, 37° C., after 3 h): > 45%
